Laboratory results: paper PMC4286194 (Biochemical Journal, 2015)

Legend:
[1] = target: p38 beta MAPK (Homo sapiens, UniProt Q15759); experiment: Kinase profiling; assay type: biochemical
[2] = target: T1, BRSK2 (Homo sapiens, UniProt Q8IWQ3); experiment: Kinase profiling; assay type: biochemical
T1 sequence (Q8IWQ3 1-736): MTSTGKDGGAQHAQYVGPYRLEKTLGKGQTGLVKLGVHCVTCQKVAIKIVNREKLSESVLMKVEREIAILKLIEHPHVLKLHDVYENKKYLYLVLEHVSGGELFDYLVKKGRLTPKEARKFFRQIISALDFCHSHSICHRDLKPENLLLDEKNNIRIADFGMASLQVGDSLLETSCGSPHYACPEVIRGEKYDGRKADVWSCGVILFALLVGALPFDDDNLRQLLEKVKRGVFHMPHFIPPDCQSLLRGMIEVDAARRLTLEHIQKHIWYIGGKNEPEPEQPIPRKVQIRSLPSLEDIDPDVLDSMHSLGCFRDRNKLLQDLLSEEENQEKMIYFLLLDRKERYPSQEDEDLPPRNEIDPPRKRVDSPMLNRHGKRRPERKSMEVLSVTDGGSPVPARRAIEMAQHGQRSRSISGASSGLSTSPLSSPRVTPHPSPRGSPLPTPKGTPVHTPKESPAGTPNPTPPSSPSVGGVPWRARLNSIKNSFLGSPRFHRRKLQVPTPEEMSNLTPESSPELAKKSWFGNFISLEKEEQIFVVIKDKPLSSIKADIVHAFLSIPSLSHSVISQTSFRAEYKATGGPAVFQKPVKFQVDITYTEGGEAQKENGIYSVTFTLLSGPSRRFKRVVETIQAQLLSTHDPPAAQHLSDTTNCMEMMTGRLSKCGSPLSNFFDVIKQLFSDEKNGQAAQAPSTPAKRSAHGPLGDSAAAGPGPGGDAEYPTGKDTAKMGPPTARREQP

[3] = target: CLK2 (Homo sapiens, UniProt P49760); experiment: Kinase profiling; assay type: biochemical
[4] = tested on: Bone-marrow-derived macrophages; experiment: Markers of alternatively activated macrophages (qPCR); assay type: cell-based, mouse; conditions: 3 μM bosutinib or 0.3 μM dasatinib 1 h, then LPS
Protocol: mRNA was extracted from cells using the MicroElute Total RNA kit following the manufacturers’ instructions (Omega Bio-Tek). cDNA was generated from 0.5 μg of total RNA using the iScript cDNA synthesis kit and quantified by quantitative real-time PCR (qPCR) using the SsoFast EvaGreen Supermix on a CFX384 real-time system (Bio-Rad Laboratories). The relative expression of each gene was calculated from CT values using the Pfaffl method and was normalized against the mRNA levels of housekeeping genes including 18S RNA and GAPDH. Results are reported relative to untreated control cells, which were set to 1.

[5] = target: p38 alpha MAPK (Homo sapiens, UniProt Q16539); experiment: Kinase profiling; assay type: biochemical
[6] = target: T2, SIK2[T96Q] (Homo sapiens, UniProt Q9H0K1, T96Q); assay type: biochemical; conditions: gatekeeper threonine mutated to glutamine
T2 construct: GST; made in house; host or cells: HEK293 cells

[7] = target: PKA (Homo sapiens, UniProt P17612); experiment: Kinase profiling; assay type: biochemical
[8] = target: PKB alpha (Homo sapiens, UniProt P31749); experiment: Kinase profiling; assay type: biochemical
[9] = target: TrkA (Homo sapiens, UniProt P04629); experiment: Kinase profiling; assay type: biochemical
[10] = target: PKC gamma (Homo sapiens, UniProt P05129); experiment: Kinase profiling; assay type: biochemical
[11] = tested on: Bone-marrow-derived macrophages; experiment: IL-10 secretion (BIOPLEX) in LPS-stimulated macrophages; assay type: cell-based, mouse; conditions: for EC50: Mus musculus, Macrophage, read-out: EC50 for elevation of IL-10 secretion; for IL-10 production at optimal dose: dasatinib 300 nM, bosutinib 3 μM, HG-9-91-01 500 nM, LPS-stimulated
Protocol: The concentration of TNFα, IL-6, IL-10 and IL-12p40 in cell-free culture supernatants were measured using the Bio-Plex Pro Assay system (Bio-Rad).

[12] = target: PIM2 (Homo sapiens, UniProt Q9P1W9); experiment: Kinase profiling; assay type: biochemical
[13] = target: TESK1 (Homo sapiens, UniProt Q15569); experiment: Kinase profiling; assay type: biochemical
[14] = tested on: Bone-marrow-derived macrophages; experiment: TLR signalling immunoblots (MAPKs, MSK1/2, CREB, IKKs, TBK1); assay type: cell-based, mouse; conditions: for Kinetics of activation of MAPKs including ERK1/2 and p38α/β: 3 μM bosutinib or 0.3 μM dasatinib, LPS or Pam3CSK4; for TLR-stimulated phosphorylation of ERK1/2, JNK1/2, p38α/β MAPKs, MSK1/2, IKKα/β, TBK1 and their direct substrates: 3 μM bosutinib, 0.3 μM dasatinib or 0.5 μM HG-9-91-01
Protocol: RAW264.7 cells were cultured in DMEM containing 10% FBS, 2 mM glutamine and penicillin and streptomycin. […] Cells were treated for 1 h with or without inhibitors and then stimulated for up to 24 h with either 1 μg/ml Pam3CSK4 or 100 ng/ml LPS.
Cells were extracted in lysis buffer [50 mM Tris/HCl, pH 7.4, 1 mM EDTA, 1 mM EGTA, 50 mM NaF, 5 mM sodium pyrophosphate, 10 mM sodium β-glycerol 1-phosphate, 1 mM DTT, 1 mM sodium orthovanadate, 0.27 M sucrose, 1% (v/v) Triton X-100, 1 μg/ml aprotinin, 1 μg/ml leupeptin and 1 mM PMSF]. Cell extracts were clarified by centrifugation and protein concentrations were determined using the Bradford assay. To immunoprecipitate endogenous CRTC3, 1 mg of cell extract was incubated with 5 μg of anti-CRTC3 [13] covalently cross-linked on to Protein G–Sepharose. Immune complexes were washed three times with lysis buffer, eluted in 1% SDS and separated by SDS/PAGE. To detect proteins in cell lysates, 20 μg of protein extract was separated by SDS/PAGE. After transfer to PVDF membranes, proteins were detected by immunoblotting and visualized by treating the blots with ECL (GE Healthcare) followed by autoradiography.

[15] = target: T3, PRAK (Homo sapiens, UniProt Q8IW41); experiment: Kinase profiling; assay type: biochemical
T3 sequence (Q8IW41 1-473): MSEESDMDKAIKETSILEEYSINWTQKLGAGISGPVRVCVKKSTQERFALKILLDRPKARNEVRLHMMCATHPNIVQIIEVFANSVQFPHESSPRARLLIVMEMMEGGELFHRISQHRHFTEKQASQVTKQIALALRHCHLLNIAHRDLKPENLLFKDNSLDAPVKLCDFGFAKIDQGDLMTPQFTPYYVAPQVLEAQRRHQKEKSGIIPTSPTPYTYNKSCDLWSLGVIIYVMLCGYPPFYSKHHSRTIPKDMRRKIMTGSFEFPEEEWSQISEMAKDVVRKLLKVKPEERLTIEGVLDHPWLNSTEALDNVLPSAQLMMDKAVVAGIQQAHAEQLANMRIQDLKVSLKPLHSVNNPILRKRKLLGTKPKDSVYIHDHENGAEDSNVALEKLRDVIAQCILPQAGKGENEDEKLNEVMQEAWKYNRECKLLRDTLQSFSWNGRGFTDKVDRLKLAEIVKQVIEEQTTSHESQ

[16] = target: RIPK2 (Homo sapiens, UniProt O43353); experiment: Kinase profiling; assay type: biochemical
[17] = target: HER4 (Homo sapiens, UniProt Q15303); experiment: Kinase profiling; assay type: biochemical
[18] = target: MAP4K5 (Homo sapiens, UniProt Q9Y4K4); experiment: Kinase profiling; assay type: biochemical
[19] = target: PDGFRA (Homo sapiens, UniProt P16234); experiment: Kinase profiling; assay type: biochemical
PDGFRA, sequence (P16234 24-1089): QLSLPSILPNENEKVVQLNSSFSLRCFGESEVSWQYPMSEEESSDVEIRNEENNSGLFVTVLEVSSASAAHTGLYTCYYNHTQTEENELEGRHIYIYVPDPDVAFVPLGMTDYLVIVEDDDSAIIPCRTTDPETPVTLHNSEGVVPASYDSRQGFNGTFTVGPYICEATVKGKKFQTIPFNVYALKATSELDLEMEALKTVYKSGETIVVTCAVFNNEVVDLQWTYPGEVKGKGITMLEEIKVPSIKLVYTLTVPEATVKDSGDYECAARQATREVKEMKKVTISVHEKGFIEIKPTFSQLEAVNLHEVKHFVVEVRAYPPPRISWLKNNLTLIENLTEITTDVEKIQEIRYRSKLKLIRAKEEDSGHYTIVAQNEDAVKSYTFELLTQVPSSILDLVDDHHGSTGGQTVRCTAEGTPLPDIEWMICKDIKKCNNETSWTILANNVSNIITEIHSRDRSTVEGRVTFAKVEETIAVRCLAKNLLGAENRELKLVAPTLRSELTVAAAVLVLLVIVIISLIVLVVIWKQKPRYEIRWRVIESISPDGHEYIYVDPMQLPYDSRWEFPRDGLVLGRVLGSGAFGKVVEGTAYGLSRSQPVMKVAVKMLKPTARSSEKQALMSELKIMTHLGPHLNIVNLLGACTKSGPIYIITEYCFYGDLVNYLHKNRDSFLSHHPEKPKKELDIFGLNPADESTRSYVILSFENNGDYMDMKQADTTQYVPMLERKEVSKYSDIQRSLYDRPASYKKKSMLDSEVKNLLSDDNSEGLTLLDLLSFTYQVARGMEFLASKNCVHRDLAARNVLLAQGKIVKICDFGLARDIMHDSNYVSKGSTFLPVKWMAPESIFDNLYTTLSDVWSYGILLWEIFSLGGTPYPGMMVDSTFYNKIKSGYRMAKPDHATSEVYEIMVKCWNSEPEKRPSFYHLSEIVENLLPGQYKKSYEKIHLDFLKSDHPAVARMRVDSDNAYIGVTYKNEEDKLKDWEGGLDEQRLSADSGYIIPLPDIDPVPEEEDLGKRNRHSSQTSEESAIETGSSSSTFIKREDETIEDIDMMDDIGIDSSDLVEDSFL

RIPK2, sequence (O43353 whole entry): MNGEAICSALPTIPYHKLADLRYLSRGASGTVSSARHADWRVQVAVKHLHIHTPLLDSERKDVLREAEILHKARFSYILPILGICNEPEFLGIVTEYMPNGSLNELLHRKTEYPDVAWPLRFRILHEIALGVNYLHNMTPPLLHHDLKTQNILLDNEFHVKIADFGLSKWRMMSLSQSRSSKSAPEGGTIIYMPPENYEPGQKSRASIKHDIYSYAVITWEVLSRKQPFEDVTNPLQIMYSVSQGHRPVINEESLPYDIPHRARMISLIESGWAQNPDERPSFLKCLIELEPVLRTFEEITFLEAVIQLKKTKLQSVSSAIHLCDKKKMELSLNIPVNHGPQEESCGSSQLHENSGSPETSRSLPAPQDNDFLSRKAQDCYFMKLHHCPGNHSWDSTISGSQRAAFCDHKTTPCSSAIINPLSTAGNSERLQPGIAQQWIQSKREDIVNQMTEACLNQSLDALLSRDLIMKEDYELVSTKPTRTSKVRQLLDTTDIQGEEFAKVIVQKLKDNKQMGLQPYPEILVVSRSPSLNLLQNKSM
PKB alpha, sequence (P31749 whole entry): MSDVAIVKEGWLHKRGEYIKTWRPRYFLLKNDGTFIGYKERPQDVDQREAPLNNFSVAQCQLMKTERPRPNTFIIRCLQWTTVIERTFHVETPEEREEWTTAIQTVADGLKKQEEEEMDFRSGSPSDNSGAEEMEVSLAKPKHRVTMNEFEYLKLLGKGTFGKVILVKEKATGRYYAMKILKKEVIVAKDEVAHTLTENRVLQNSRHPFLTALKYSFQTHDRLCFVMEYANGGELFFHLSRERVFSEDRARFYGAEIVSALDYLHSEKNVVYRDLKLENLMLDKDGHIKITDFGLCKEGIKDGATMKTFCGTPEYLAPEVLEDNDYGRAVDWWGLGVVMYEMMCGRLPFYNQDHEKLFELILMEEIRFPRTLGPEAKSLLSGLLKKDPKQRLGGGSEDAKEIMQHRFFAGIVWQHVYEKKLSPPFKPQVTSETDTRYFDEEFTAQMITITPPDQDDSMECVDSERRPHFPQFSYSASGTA
TrkA, sequence (P04629 33-796): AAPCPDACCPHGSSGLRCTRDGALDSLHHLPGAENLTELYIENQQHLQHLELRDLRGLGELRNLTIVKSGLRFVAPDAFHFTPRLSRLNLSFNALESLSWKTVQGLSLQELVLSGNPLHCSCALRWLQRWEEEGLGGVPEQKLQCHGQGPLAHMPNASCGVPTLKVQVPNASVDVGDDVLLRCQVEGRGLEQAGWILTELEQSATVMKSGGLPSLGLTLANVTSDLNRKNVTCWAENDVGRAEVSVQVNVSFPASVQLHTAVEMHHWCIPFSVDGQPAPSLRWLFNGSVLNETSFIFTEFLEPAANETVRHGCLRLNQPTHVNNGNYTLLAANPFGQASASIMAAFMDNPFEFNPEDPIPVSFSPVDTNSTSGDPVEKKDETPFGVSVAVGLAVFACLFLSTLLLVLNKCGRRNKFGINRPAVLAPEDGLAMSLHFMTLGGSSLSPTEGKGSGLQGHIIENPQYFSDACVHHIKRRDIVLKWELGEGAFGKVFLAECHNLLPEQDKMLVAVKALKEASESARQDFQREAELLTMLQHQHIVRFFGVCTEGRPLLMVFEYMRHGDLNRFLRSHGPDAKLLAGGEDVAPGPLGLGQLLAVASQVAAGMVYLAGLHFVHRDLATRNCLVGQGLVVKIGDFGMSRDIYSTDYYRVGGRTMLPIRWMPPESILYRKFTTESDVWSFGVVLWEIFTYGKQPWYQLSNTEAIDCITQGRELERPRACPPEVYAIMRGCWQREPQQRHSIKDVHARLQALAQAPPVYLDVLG
MAP4K5, sequence (Q9Y4K4 whole entry): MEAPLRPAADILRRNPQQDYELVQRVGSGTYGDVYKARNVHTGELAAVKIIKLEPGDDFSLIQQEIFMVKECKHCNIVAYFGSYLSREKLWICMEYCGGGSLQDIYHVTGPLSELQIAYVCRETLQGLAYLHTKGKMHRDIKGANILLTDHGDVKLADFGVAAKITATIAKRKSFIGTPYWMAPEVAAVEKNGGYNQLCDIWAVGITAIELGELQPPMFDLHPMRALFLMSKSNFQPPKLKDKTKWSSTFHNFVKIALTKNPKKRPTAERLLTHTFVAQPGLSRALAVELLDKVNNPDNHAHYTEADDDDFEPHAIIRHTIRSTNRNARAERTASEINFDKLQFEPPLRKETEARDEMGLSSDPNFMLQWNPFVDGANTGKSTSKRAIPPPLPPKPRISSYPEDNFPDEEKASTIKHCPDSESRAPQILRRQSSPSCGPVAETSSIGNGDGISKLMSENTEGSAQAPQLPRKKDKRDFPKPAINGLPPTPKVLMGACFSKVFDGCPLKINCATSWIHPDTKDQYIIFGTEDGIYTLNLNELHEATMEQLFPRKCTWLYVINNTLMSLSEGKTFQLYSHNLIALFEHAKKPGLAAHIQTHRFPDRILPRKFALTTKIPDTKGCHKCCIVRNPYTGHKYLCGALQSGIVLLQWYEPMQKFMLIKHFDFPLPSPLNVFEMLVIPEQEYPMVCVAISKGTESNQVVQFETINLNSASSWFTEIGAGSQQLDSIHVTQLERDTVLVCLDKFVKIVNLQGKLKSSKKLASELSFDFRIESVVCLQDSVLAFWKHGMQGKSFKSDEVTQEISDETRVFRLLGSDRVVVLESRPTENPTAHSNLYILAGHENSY
p38 alpha MAPK, sequence (Q16539 whole entry): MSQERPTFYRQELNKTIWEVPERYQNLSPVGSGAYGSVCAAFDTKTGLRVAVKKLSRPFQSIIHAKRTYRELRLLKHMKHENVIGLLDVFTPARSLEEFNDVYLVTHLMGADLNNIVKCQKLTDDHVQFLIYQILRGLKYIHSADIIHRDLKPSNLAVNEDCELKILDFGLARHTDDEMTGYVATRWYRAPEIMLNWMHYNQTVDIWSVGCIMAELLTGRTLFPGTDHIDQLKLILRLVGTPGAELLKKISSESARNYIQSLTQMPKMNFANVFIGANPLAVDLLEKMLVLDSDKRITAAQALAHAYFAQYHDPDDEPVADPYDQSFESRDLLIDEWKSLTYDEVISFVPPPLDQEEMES
CLK2, sequence (P49760 whole entry): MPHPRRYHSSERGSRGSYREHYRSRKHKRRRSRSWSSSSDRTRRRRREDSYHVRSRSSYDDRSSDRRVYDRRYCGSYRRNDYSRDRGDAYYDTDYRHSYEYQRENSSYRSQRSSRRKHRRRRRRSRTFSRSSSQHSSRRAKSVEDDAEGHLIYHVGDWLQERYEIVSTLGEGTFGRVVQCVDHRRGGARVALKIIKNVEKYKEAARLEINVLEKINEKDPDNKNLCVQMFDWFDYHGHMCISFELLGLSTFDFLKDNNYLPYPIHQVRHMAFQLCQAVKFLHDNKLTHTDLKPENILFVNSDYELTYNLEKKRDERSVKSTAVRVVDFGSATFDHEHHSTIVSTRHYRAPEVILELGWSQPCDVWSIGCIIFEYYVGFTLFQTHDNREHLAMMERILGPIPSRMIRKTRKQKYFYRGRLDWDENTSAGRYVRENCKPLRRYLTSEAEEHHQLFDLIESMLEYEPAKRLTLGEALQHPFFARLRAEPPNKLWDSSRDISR
p38 beta MAPK, sequence (Q15759 whole entry): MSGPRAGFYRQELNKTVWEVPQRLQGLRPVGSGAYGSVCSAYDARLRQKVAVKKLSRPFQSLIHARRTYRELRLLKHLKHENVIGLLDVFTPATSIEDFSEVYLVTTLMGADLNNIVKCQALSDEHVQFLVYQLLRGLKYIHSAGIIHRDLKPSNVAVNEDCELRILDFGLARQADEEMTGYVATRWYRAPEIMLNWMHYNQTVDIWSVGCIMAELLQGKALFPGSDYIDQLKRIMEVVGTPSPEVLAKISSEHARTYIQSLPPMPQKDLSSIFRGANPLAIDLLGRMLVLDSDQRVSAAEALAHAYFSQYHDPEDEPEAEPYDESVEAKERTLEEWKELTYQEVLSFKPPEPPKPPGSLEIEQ

`COc1cc(Nc2c(C#N)cnc3cc(OCCCN4CCN(C)CC4)c(OC)cc23)c(Cl)cc1Cl` [Bosutinib, bosutinib] was tested, and the remaining activity at 0.1 µM [1] was 94 ± 15%, the remaining activity at 1 µM [1] was 108 ± 24% and the remaining activity at 0.1 µM [2] was 107 ± 12%. The remaining activity at 1 µM [2] was 120 ± 4%, the remaining activity at 0.1 µM [3] was 75 ± 9% and the remaining activity at 1 µM [3] was 23%. The “Expression of FIZZ, YM1 and Mgl2” value [4] was “without affecting the expression”, the remaining activity at 0.1 µM [5] was 97 ± 4% and the remaining activity at 1 µM [5] was 72 ± 3%. For the same compound, the “Loss of sensitivity of SIK2[T96Q] versus wild-type” value [6] was 100–1000 fold, the remaining activity at 0.1 µM [7] was 111 ± 16% and the remaining activity at 1 µM [7] was 105 ± 7%. It also gave a remaining activity at 0.1 µM ([8]; 0.1 µM) of 110 ± 16%, a remaining activity at 1 µM [8] of 116 ± 30% and a remaining activity at 0.1 µM [9] of 25 ± 2%. It also gave a remaining activity at 1 µM [9] of 7%, a remaining activity at 0.1 µM [10] of 88 ± 6% and a remaining activity at 1 µM [10] of 102 ± 5%. For the same compound, the EC50 [11] was 510 nM, the “IL-10 production at optimal dose” value [11] was “induced IL-10 production to similar levels as HG-9-91-01” and the remaining activity at 0.1 µM [12] was 99%. The remaining activity at 1 µM [12] was 96 ± 8%, the remaining activity at 0.1 µM [13] was 82 ± 15% and the remaining activity at 1 µM [13] was 61 ± 2%. The “Kinetics of activation of MAPKs including ERK1/2 and p38α/β” value [14] was “no effect”, the “TLR-stimulated phosphorylation of ERK1/2, JNK1/2, p38α/β MAPKs, MSK1/2, IKKα/β, TBK1 and their direct substrates” value [14] was “occurred normally” and the remaining activity at 0.1 µM [15] was 97 ± 2%. It also gave a remaining activity at 1 µM [15] of 125 ± 1%, a remaining activity at 0.1 µM [16] of 86 ± 2% and a remaining activity at 1 µM [16] of 45 ± 1%. The remaining activity at 0.1 µM [17] was 9%, the remaining activity at 1 µM [17] was 1 ± 1% and the remaining activity at 0.1 µM [18] was 0%. The remaining activity at 1 µM ([18]; 1 µM) was 1%, the remaining activity at 0.1 µM [19] was 96 ± 1% and the remaining activity at 1 µM ([19]; 1 µM) was 79%.

For `Cc1nc(Nc2ncc(C(=O)Nc3c(C)cccc3Cl)s2)cc(N2CCN(CCO)CC2)n1` [Dasatinib], the remaining activity at 0.1 µM [1] was 105 ± 11%, the remaining activity at 1 µM [1] was 44 ± 4% and the remaining activity at 0.1 µM [2] was 102 ± 14%. It also gave a remaining activity at 1 µM [2] of 108 ± 13%, a remaining activity at 0.1 µM [3] of 120 ± 6% and a remaining activity at 1 µM [3] of 121 ± 6%. For the same compound, the “Expression of FIZZ, YM1 and Mgl2” value [4] was “without affecting the expression”, the remaining activity at 0.1 µM [5] was 79 ± 15% and the remaining activity at 1 µM [5] was 29 ± 2%. For the same compound, the “Loss of sensitivity of SIK2[T96Q] versus wild-type” value [6] was 100–1000 fold, the remaining activity at 0.1 µM [7] was 110 ± 12% and the remaining activity at 1 µM [7] was 121 ± 27%. The remaining activity at 1 µM [8] was 120 ± 13%, the remaining activity at 0.1 µM [9] was 107 ± 11% and the remaining activity at 1 µM [9] was 88 ± 2%. It also gave a remaining activity at 0.1 µM [10] of 107 ± 22%, a remaining activity at 1 µM [10] of 114 ± 22% and an EC50 [11] of 110 nM. For the same compound, the “IL-10 production at optimal dose” value [11] was “induced IL-10 production to similar levels as HG-9-91-01”, the remaining activity at 0.1 µM [12] was 104 ± 3% and the remaining activity at 1 µM [12] was 105 ± 1%. The remaining activity at 0.1 µM [13] was 50 ± 3%, the remaining activity at 1 µM [13] was 8% and the “Kinetics of activation of MAPKs including ERK1/2 and p38α/β” value [14] was “no effect”. The “TLR-stimulated phosphorylation of ERK1/2, JNK1/2, p38α/β MAPKs, MSK1/2, IKKα/β, TBK1 and their direct substrates” value [14] was “occurred normally”, the remaining activity at 0.1 µM [15] was 129 ± 14% and the remaining activity at 1 µM [15] was 128 ± 7%. The remaining activity at 0.1 µM [16] was 5%, the remaining activity at 1 µM [16] was 10 ± 12% and the remaining activity at 0.1 µM [17] was 27 ± 1%. For the same compound, the remaining activity at 1 µM [17] was 6%, the remaining activity at 0.1 µM [18] was 22 ± 1% and the remaining activity at 0.1 µM [19] was 6 ± 1%.
